Data as given in patent publication US20260176283A1, “IONIZABLE LIPIDS WITH LINEAR HEAD GROUPS” (Beam Therapeutics Inc., priority 2023, published 2026).
Values joined by “and” are separate entries in the source; they are usually repeats but may differ in a detail not shown here. Identical values can stand only once.

Key:
ALAS1 target site = experiment: In vivo base editing with ABE mRNA and sgRNA targeting ALAS1; set-up: species or system Balb/c mice; details: for Liver Editing A->G (%): 4 days after dosing
Protocol: (§1) Lipid nanoparticle components are dissolved in 100% ethanol at specified lipid component molar ratios. mRNA encoding an adenine base editor and a chemically-modified sgRNA is dissolved at a mass ratio of 1:1 in 10 mM citrate, 100 mM NaCl, pH 4.0, resulting in a concentration of NA cargo of approximately 0.22 mg/mL. LNP preparations are formulated with molar ratios of either 50% Ionizable Lipid: 38.5% Cholesterol: 1.5% PEG2000-DMG: 10% DSPC or 47.5% Ionizable Lipid: 40% Cholesterol: 2.5% PEG2000-DMG: 10% DSPC both at a total lipid to NA molar ratio of 6.
(§2) LNP preparations are formed by microfluidic mixing of the lipid and NA solutions using a Precision Nanosystems NanoAssemblr Ignite Instrument, according to the manufacturer's protocol. A 3:1 ratio of aqueous to organic solvent is maintained during mixing using differential flow rates. After mixing, LNP preparations are collected, diluted in PBS (approximately 2:1 v/v), and further buffer exchange is conducted using dialysis in PBS at 4° C. for 8 to 24 hours against a 20 kDa filter. After this initial dialysis, each individual LNP preparation is characterized via dynamic light scattering (DLS) to measure size and polydispersity. pKa of a subpopulation of LNP preparations is measured via TNS assay. After dialysis, LNP preparations are sterile filtered using 0.22 micron sterile filter and stored at 4° C. for further use. In some embodiments, LNP preparations may be concentrated using 100 kDa Amicon filters per manufacturer's protocol.
Male Balb/C mice aged approximately 8-12 weeks are used in the experiments described herein. Each mouse is temporarily restrained, and LNP preparations are administered IV via tail vein injection. Age-matched mice are also used to administer vehicle (1×PBS) via tail vein injection as a control. Four to six days post-dose, tissues including liver, spleen, heart and muscle are collected (only liver and muscle (quardracept) are reported). Genomic DNA is isolated and fragmented and adapter-ligated using the Nextera DNA Flex Library Prep Kit (Illumina) using the 96-well plate Nextera indexing primers (Illumina), according to the manufacturer's instructions. Library size and concentration is confirmed by Fragment Analyzer (Agilent) and sent to Novogene for whole genome sequencing using an Illumina HiSeq.
For base editing, mRNA encoding an adenine base editor (ABE) and a guide RNA (sgRNA) targeting ALAS1 at 1:1 (mass ratio) are coencapsulated in LNP preparations as described herein. LNP preparations are administrated into Balb/c mice through tail vein injections at concentrations ranging from 0.05 to 3.0 mg/kg total RNA. At 4 days after dosing, mice are euthanized and liver, spleen and bone barrow are harvested. Base editing is determined by performing targeted deep sequencing analysis at the ALAS1 target site using extracted genomic DNA.

[1] = LNP preparation characterization (encapsulation efficiency, DLS size and polydispersity), barcoded screen LNPs; format: physicochemical; details: LNP 47.5% ionizable lipid: 40% cholesterol: 2.5% PEG-2000 DMG: 10% DPSC, N/P 4.5-6; for AVG PDI / AVG Z Dia (nm): DLS
Protocol: Lipid nanoparticle components were dissolved in 100% ethanol at specified lipid component molar ratios. Nucleic acid (NA) cargo was dissolved in 10 mM citrate, 100 mM NaCl, pH 4.0, resulting in a concentration of NA cargo of approximately 0.22 mg/mL. In some embodiments, NA cargos included both a functional NA and a reporter barcode mixed at mass ratios of 1:10 to 10:1 functional NA to barcode. As described herein, a NA can be a siRNA, an anti-sense, an expressing DNA, or mRNA.
LNP preparations were prepared with 47.5% Ionizable Lipid (e.g., a compound provided herein): 40% cholesterol: 2.5% PEG-2000 DMG: 10% DPSC and an N/P ratio range of 4.5-6. LNP preparations were formed by microfluidic mixing of the lipid and NA solutions using Precision Nanosystems NanoAssemblr Spark or Benchtop series Instruments, according to the manufacturer's protocol.
A ratio of aqueous to organic solvent of approximately 2:1 or 3:1 was maintained during mixing using differential flow rates. After mixing, LNP preparations were collected, diluted in phosphate buffer saline (PBS) or Tris-buffered saline (TBS) (approximately 1:1 v/v). Further buffer exchange was conducted using dialysis in PBS or TBS at 4° C. for 4 to 24 hours against a 20 kDa filter. After this initial dialysis, each individual LNP preparation may be characterized via dynamic light scattering (DLS) to measure the size (e.g., diameter) and polydispersity. LNP preparations falling within specific diameter and polydispersity ranges were pooled, and further dialyzed against PBS or TBS at 4° C. for 1 to 4 hours against a 100 kDa dialysis cassette. After the second dialysis, LNP preparations were sterile filtered using 0.22 μm filter and stored at 4° C. for further use.

[2] = LNP characterization of base editor LNP preparations (DLS diameter, PDI, encapsulation efficiency); format: physicochemical
Protocol: as §1, §2
DLS—LNP preparation hydrodynamic diameter and polydispersity index (PDI) is measured using high throughput dynamic light scattering (DLS) (DynaPro plate reader II, Wyatt). LNP preparations are diluted 1×PBS to an appropriate concentration and analyzed.
Concentration of NA is determined by Qubit microRNA kit (for siRNA) or HS RNA kit (for mRNA) per manufacturer's instructions. Encapsulation efficiency is determined by measuring unlysed and lysed LNPs.

[3] = Table C LNPs, formulation ratio 47.5:40:2.5:10, ABE mRNA/ALAS1 sgRNA
[4] = dose 1.5 MPK IV, formulation ratio 50:38.5:1.5:10, liver
[5] = dose 1.5 MPK IV, formulation ratio 50:38.5:1.5:10, quadricep muscle
[6] = Table D LNPs, formulation ratio 50:38.5:1.5:10, ABE mRNA/ALAS1 sgRNA
[7] = dose 3 MPK IV, formulation ratio 50:38.5:1.5:10, quadricep muscle
[8] = dose 3 MPK IV, formulation ratio 50:38.5:1.5:10, liver

| Structure (SMILES) | Liver Editing A->G (%) (ALAS1 target site; dose 0.05 MPK IV, formulation ratio 47.5:40:2.5:10, liver) | AVG EE(%) [1] [%] | AVG PDI [1] | AVG Z Dia (nm) [1] [nm] | Diameter (nm) [2, 3] | EE (%) [2, 3] | PDI (%) [2, 3] | Liver Editing A->G (%) (ALAS1 target site; [4]) | Quadrecept Editing A->G (%) (ALAS1 target site; [5]) | Diameter (nm) [2, 6] | EE (%) [2, 6] | PDI (%) [2, 6] | Quadrecept Editing A->G (%) (ALAS1 target site; [7]) | Liver Editing A->G (%) (ALAS1 target site; [8]) | Liver Editing A->G (%) (ALAS1 target site; dose 0.05 MPK IV, formulation ratio 50:38.5:1.5:10, liver) | Quadrecept Editing A->G (%) (ALAS1 target site; dose 3 MPK IV, formulation ratio 47.5:40:2.5:10, quadricep muscle) |
| --- | --- | --- | --- | --- | --- | --- | --- | --- | --- | --- | --- | --- | --- | --- | --- | --- |
| CCCCCCCC(CCCCCCC)OC(=O)CCCCCC(=O)OCC(COC(=O)CCCCCC(=O)OC(CCCCCCC)CCCCCCC)COC(=O)CCCN1CCCC1 [Compound (21), O1-[2-[[7-(1-heptyloctoxy)-7-oxo-heptanoyl]oxymethyl]-3-(4-pyrrolidin-1-ylbutanoyloxy)propyl] O7-(1-heptyloctyl) heptanedioate] | 0.5 | 95.1 | 0.13 | 75.95 | 62.08 nm | 98.19% | 6% | – | – | – | – | – | – | – | – | – |
| CCC/C=C\CCC(CC/C=C\CCC)OC(=O)CCCCCC(=O)OCC(COC(=O)CCCCCC(=O)OC(CC/C=C\CCC)CC/C=C\CCC)COC(=O)CCCN1CCCC1 [Compound (23), 1-{2-[({7-Oxo-7-[(4Z,11Z)-pentadeca-4,11-dien-8-yloxy]heptanoyl}oxy)methyl]-3-{[4-(pyrrolidin-1-yl)butanoyl]oxy}propyl} 7-(4Z,11Z)-pentadeca-4,11-dien-8-ylheptanedioate] | – | 85.8 | 0.12 | 78.47 | – | – | – | 80.09 | 4.81 | 72.6 nm | 98.18% | 11.4% | – | – | – | – |
| C=CCCCC(CCCC=C)OC(=O)CCCCCCC(=O)OCC(COC(=O)CCCCCCC(=O)OC(CCCC=C)CCCC=C)COC(=O)CCCN1CCCC1 [Compound (7), 1-[2-({[8-Oxo-8-(undeca-1,10-dien-6-yloxy)octanoyl]oxy}methyl)-3-{[4-(pyrrolidin-1-yl)butanoyl]oxy}propyl] 8-undeca-1,10-dien-6-yl octanedioate] | – | 74.3 | – | 85.54 | – | – | – | – | – | 121.2 nm | 91.02% | 11.8% | 0.87 | – | – | – |
| C=CCCCC(CCCC=C)OC(=O)CCCCC(=O)OCC(COC(=O)CCCCC(=O)OC(CCCC=C)CCCC=C)COC(=O)CCCN1CCCC1 [Compound (33), 1-[2-({[6-Oxo-6-(undeca-1,10-dien-6-yloxy)hexanoyl]oxy}methyl)-3-{[4-(pyrrolidin-1-yl)butanoyl]oxy}propyl] 6-undeca-1,10-dien-6-yl hexanedioate] | – | 98.3 | 0.10 | 133.71 | – | – | – | – | – | 179.7 nm | 75.69% | 23.4% | 0.1 | – | – | – |
| O=C(CCCCCCC(=O)OC(CCCCCC(F)(F)F)CCCCCC(F)(F)F)OCC(COC(=O)CCCCCCC(=O)OC(CCCCCC(F)(F)F)CCCCCC(F)(F)F)COC(=O)CCCN1CCCC1 [Compound (16), 1-(1,1,1,13,13,13-Hexafluorotridecan-7-yl)-8-{2-[({8-[(1,1,1,13,13,13-hexafluorotridecan-7-yl)oxy]-8-oxooctanoyl}oxy)methyl]-3-{[4-(pyrrolidin-1-yl)butanoyl]oxy}propyl} octanedioate] | – | 64.3 | 0.09 | 129.85 | – | – | – | – | – | 96.8 nm | 96.3% | 13.5% | 0.6 | 72.41 | – | – |
| C=CCCCCCC(CCCCCC=C)OC(=O)CCCCCC(=O)OCC(COC(=O)CCCCCC(=O)OC(CCCCCC=C)CCCCCC=C)COC(=O)NCCN1CCCC1 [Compound (26), O1-[2-[[7-(1-hept-6-enyloct-7-enoxy)-7-oxo-heptanoyl]oxymethyl]-3-(2-pyrrolidin-1-ylethylcarbamoyloxy)propyl] O7-(1-hept-6-enyloct-7-enyl) heptanedioate] | – | 93.4 | 0.08 | 82.14 | 75.47 nm and 81.14 nm | 99.1% and 99% | 1.2% and 9.4% | – | – | 79.5 nm | 98.3% | 22.3% | – | – | 0.41 | 7.26 |
| C=CCCCCC(CCCCC=C)OC(=O)CCCCCC(=O)OCC(COC(=O)CCCCCC(=O)OC(CCCCC=C)CCCCC=C)COC(=O)CCCN1CCCC1 [Compound (2)] | – | 83.5 | 0.06 | 108.73 | – | – | – | 79.48 | 3.19 | 98.8 nm | 98.59% | 9.5% | – | – | – | – |
| C=CCCCCCC(CCCCCC=C)OC(=O)CCCCCC(=O)OCC(COC(=O)CCCCCC(=O)OC(CCCCCC=C)CCCCCC=C)COC(=O)CCCN1CCCC1 [Compound (9), 1-[2-({[7-Oxo-7-(pentadeca-1,14-dien-8-yloxy)heptanoyl]oxy}methyl)-3-{[4-(pyrrolidin-1-yl)butanoyl]oxy}propyl] 7-pentadeca-1,14-dien-8-yl heptanedioate] | – | – | – | – | – | – | – | 90.8 | 8.22 | 74.1 nm and 75.6 nm and 89.9 nm and 85.5 nm | 98.77% and 98.4% and 98.5% and 98.1% | 12.2% and 9.7% and 8.1% and 9.8% | – | – | – | – |
| C=CCCCCCCC(CCCCCCC=C)OC(=O)CCCCCC(=O)OCC(COC(=O)CCCCCC(=O)OC(CCCCCCC=C)CCCCCCC=C)COC(=O)CCCN1CCCC1 [Compound (4), 1-Heptadeca-1,16-dien-9-yl-7-[2-({[7-(heptadeca-1,16-dien-9-yloxy)-7-oxoheptanoyl]oxy}methyl)-3-{[4-(pyrrolidin-1-yl)butanoyl]oxy}propyl] heptanedioate] | – | – | – | – | – | – | – | – | – | 72.1 nm | 99.03% | 11% | 4.16 | 64.7 | – | – |
